Data taken from article PMC5810560 (Chemico-biological interactions, 2017).
Values joined by “and” are separate entries in the source; they are usually repeats but may differ in a detail not shown here. Equal values may be shown once.

Experiments:
[1] = mice dosed with 80 mg/kg; ref Radic et al., 2012; cited from earlier work
[2] = tested on: Human cerebral microvascular cells (HCMEC/D3); assay: Brain endothelial cell traversal; conditions: 100 μM in HBSS, apical to basolateral
[3] = RS194B plasma pharmacokinetics; conditions: for AUC0-t: t = 24 h
[4] = Renal clearance: urine radioactivity and HPLC of urine; conditions: for percent of the administered dose in urine: guinea pig
[5] = Parallel artificial membrane permeability assay; conditions: 100 μM in HBSS
[6] = biological target: p-gp (MDR1) (Homo sapiens, UniProt P08183); assay: MDR1 efflux assessment in MDR1-MDCK and MDCK parent cells; conditions: MDR1-MDCK vs MDCK cells, 100 μM; NFR > 1 = possible p-gp substrate
[7] = RS194B biodistribution / brain penetration in perfused tissues; conditions: for Tissue level at Cmax, percent of administered dose, Brain / Tissue level at Cmax, percent of administered dose, Heart / Tissue level at Cmax, percent of administered dose, Kidney / Tissue level at Cmax, percent of administered dose, Liver / Tissue level at Cmax, percent of administered dose, Lung / Tissue level at Cmax, percent of administered dose, Spleen: total tissue weight
[8] = dose increase from 10 to 200 mg/kg (20-fold), IV
[9] = guinea pig plasma, single IM dose 50 mg/kg
[10] = guinea pig plasma, single IV dose 10 mg/kg
[11] = guinea pig plasma, single IV dose 50 mg/kg
[12] = guinea pig plasma, single IV dose 100 mg/kg
[13] = guinea pig plasma, single IV dose 200 mg/kg
[14] = guinea pig, after IV administration, post dose

p-gp (MDR1), sequence (P08183 whole entry, looked up, the tested form may be a part): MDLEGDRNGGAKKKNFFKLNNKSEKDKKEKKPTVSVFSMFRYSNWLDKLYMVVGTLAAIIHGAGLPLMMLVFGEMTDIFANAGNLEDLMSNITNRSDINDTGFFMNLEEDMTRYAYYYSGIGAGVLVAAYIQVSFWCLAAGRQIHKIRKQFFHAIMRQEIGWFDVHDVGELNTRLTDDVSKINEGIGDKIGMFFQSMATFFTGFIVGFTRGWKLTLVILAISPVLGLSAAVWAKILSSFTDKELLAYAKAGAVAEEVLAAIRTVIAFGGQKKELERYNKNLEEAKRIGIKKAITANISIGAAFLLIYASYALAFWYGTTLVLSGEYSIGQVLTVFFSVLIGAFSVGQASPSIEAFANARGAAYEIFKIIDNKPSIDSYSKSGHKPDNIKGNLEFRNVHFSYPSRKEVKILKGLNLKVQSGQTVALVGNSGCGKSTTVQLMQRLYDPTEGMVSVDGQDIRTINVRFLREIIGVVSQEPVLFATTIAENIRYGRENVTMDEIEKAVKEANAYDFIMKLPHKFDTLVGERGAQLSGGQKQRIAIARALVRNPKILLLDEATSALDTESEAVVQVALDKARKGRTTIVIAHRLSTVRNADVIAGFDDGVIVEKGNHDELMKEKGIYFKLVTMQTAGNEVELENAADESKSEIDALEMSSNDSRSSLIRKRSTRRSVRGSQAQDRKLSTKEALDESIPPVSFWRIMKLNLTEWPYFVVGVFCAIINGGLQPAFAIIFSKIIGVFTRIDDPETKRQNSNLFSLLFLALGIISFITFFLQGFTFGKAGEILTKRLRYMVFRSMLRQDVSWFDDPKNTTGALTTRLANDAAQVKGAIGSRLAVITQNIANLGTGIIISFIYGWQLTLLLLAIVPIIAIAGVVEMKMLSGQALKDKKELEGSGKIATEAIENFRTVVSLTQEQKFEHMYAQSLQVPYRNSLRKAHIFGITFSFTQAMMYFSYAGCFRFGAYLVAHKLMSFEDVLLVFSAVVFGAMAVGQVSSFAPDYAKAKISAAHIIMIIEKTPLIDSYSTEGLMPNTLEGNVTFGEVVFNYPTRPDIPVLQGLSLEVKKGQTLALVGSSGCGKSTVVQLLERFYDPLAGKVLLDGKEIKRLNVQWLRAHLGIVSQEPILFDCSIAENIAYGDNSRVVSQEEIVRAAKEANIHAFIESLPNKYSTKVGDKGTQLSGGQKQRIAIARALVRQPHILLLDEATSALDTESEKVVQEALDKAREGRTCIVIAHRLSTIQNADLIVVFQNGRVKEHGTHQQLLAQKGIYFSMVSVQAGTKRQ

## O=C(C=NO)NCCN1CCCCCC1 [RS194B]
[1]
  brain/plasma ratio: 0.3
[2]
  permeability across HCMEC/D3 monolayer relative to controls: permeability was improved over that of 2-PAM, but was lower than that of a known permeable compound
[3]; [8]
  increase in mean AUC0-t: 32 fold
  increase in mean C0: 25 fold
[3]; dose range 10-200 mg/kg IV
  power regression slope, AUC0-t vs dose: 1.13
  power regression slope, C0 vs dose: 1.09
[3]; guinea pig plasma, IM 50 mg/kg
  tmax: 0.5 h
[3]; guinea pig plasma, across four IV doses 10-200 mg/kg
  mean apparent distribution half-life (t1/2α), range: 0.78 to 1.5 h
[3]; [9]
  AUC0-inf: 78740 ± 3750 ng·h/mL
  C0: 24900 ± 1440 ng/mL
  CL: 10.697 ± 0.522 mL/min/kg
  T1/2;β: 8.53 ± 1.49 h
  Vd: 7.729 ± 1.08899 L/kg
  t1/2α: 0.87 ± 0.13 h
  AUC0-t: 73500 ± 2410 ng·h/mL
[3]; [10]
  AUC0-inf: 17530 ± 1350 ng·h/mL
  C0: 6230 ± 150 ng/mL
  CL: 9.8418 ± 0.8645 mL/min/kg
  T1/2;β: 10.41 ± 1.54 h
  Vd: 8.67515 ± 1.99977 L/kg
  t1/2α: 0.79 ± 0.07 h
  AUC0-t: 15270 ± 1230 ng·h/mL
[3]; [11]
  C0: 42770 ± 2500 ng/mL
  CL: 9.1108 ± 0.4573 mL/min/kg
  T1/2;β: 10.68 ± 1.94 h
  Vd: 8.37818 ± 1.44868 L/kg
  t1/2α: 1.03 ± 0.28 h
  AUC0-t: 83800 ± 4050 ng·h/mL
[3]; [12]
  AUC0-inf: 223600 ± 14560 ng·h/mL
  C0: 93180 ± 3400 ng/mL
  CL: 7.5982 ± 0.4475 mL/min/kg
  T1/2;β: 12.87 ± 2.16 h
  Vd: 8.32203 ± 1.44265 L/kg
  t1/2α: 0.78 ± 0.05 h
  AUC0-t: 188050 ± 11100 ng·h/mL
[3]; [13]
  AUC0-inf: 530830 ± 57860 ng·h/mL
  C0: 157660 ± 4340 ng/mL
  CL: 6.6752 ± 0.7335 mL/min/kg
  T1/2;β: 9.75 ± 1.83 h
  Vd: 5.80208 ± 1.32987 L/kg
  t1/2α: 1.50 ± 0.20 h
  AUC0-t: 488520 ± 63160 ng·h/mL
[3]; guinea pig, as summarised in abstract
  plasma t1/2: ~1 h
[4]; first 4 h post dose, three highest dose concentrations
  radioactivity recovered in the urine: over 60%
[4]; guinea pig urine, one radioactive peak matching RS194B standard
  metabolic stability (HPLC of 0-4 h urine): metabolically stable
[4]; IV 10 mg/kg, first 24 h
  percent of the administered dose in urine: 11-28%
[4]; IV 50 mg/kg, first 24 hr post dose
  percent of the administered dose in urine: 49-77%
[4]; IV 100 mg/kg, first 24 hr post dose
  percent of the administered dose in urine: 46-68%
[4]; IV 200 mg/kg, first 24 hr post dose
  percent of the administered dose in urine: 59-79%
[5]; five hours, 25°C, vs threshold for moderate permeability
  effective permeability (Peff), PAMPA: < 2 ×10⁻⁶ cm/s
[5]; vs 2-PAM and diazepam positive control
  PAMPA diffusion relative to controls: increased diffusion relative to the 2-PAM standard of care, rate of permeation was dramatically lower than the diazepam positive control
[6]
  net flux ratio (NFR): ≤ 1
[7]; guinea pig, IM 50 mg/kg, 0.08 hr (brain Cmax)
  brain/ plasma: 0.058 and 0.06 ± 0.002
[7]; guinea pig, IM 50 mg/kg, 0.25 hr
  brain/ plasma: 0.04 ± 0.006
[7]; guinea pig, IM 50 mg/kg, 0.5 hr
  brain/ plasma: 0.03 ± 0.002
[7]; guinea pig, IM 50 mg/kg, 1 hr
  brain/ plasma: 0.02 ± 0.010
[7]; guinea pig, IM 50 mg/kg, 2 hr
  brain/ plasma: 0.02 ± 0.001
[7]; guinea pig, IM 50 mg/kg, 4 hr
  brain/ plasma: 0.06 ± 0.005
[7]; guinea pig, IM 50 mg/kg, 8 hr
  brain/ plasma: 0.08 ± 0.007
[7]; guinea pig, IM 50 mg/kg, 24 hr
  brain/ plasma: 0.19 ± 0.045
[7]; guinea pig, IM 50 mg/kg
  Tissue level at Cmax, percent of administered dose, Brain: 0.02 ± 0.005% of administered dose
  Tissue level at Cmax, percent of administered dose, Heart: 0.07 ± 0.02% of administered dose
  Tissue level at Cmax, percent of administered dose, Kidney: 2.87 ± 0.48% of administered dose
  Tissue level at Cmax, percent of administered dose, Liver: 7.04 ± 0.61% of administered dose
  Tissue level at Cmax, percent of administered dose, Lung: 0.67 ± 0.16% of administered dose
  Tissue level at Cmax, percent of administered dose, Spleen: 0.03 ± 0.01% of administered dose
[7]; guinea pig, IM exposure
  brain-to-plasma ratio at later time points over ratio at Tmax: 3.2 times
[7]; guinea pig, IV 10 mg/kg, 0.08 hr (brain Cmax)
  brain/ plasma: 0.04 ± 0.001
[7]; guinea pig, IV 10 mg/kg, 0.25 hr
  brain/ plasma: 0.040 ±0.002
[7]; guinea pig, IV 10 mg/kg, 0.5 hr
  brain/ plasma: 0.03 ± 0.002
[7]; guinea pig, IV 10 mg/kg, 1 hr
  brain/ plasma: 0.02 ± 0.001
[7]; guinea pig, IV 10 mg/kg, 2 hr
  brain/ plasma: 0.03 ± 0.003
[7]; guinea pig, IV 10 mg/kg, 4 hr
  brain/ plasma: 0.05 ± 0.003
[7]; guinea pig, IV 10 mg/kg, 8 hr
  brain/ plasma: 0.09 ± 0.011
[7]; guinea pig, IV 10 mg/kg, 24 hr
  brain/ plasma: 0.11 ± 0.035
[7]; guinea pig, IV 10 mg/kg
  Tissue level at Cmax, percent of administered dose, Heart: 0.05 ± 0.01% of administered dose
  Tissue level at Cmax, percent of administered dose, Kidney: 5.19 ± 0.23% of administered dose
  Tissue level at Cmax, percent of administered dose, Liver: 8.76 ± 0.32% of administered dose
  Tissue level at Cmax, percent of administered dose, Lung: 0.45 ± 0.04% of administered dose
  Tissue level at Cmax, percent of administered dose, Spleen: 0.04 ± 0.01% of administered dose
[7]; guinea pig, IV 10 mg/kg, 10 mg/kg
  Tissue level at Cmax, percent of administered dose, Brain: 0.03% of administered dose and 0.03 ± 0.002% of administered dose
[7]; guinea pig, IV 50 mg/kg, 0.08 hr (brain Cmax)
  brain/ plasma: 0.09 ± 0.006
[7]; guinea pig, IV 50 mg/kg, 0.25 hr
  brain/ plasma: 0.08 ± 0.005
[7]; guinea pig, IV 50 mg/kg, 0.5 hr
  brain/ plasma: 0.05 ± 0.003
[7]; guinea pig, IV 50 mg/kg, 1 hr
  brain/ plasma: 0.03 ± 0.014
[7]; guinea pig, IV 50 mg/kg, 2 hr
  brain/ plasma: 0.03 ± 0.002
[7]; guinea pig, IV 50 mg/kg, 4 hr
  brain/ plasma: 0.07 ± 0.004
[7]; guinea pig, IV 50 mg/kg, 8 hr
  brain/ plasma: 0.07 ± 0.009
[7]; guinea pig, IV 50 mg/kg, 24 hr
  brain/ plasma: 0.18 ± 0.062
[7]; guinea pig, IV 50 mg/kg
  Tissue level at Cmax, percent of administered dose, Brain: 0.09 ± 0.01% of administered dose
  Tissue level at Cmax, percent of administered dose, Heart: 0.06 ± 0.01% of administered dose
  Tissue level at Cmax, percent of administered dose, Kidney: 5.16 ± 0.52% of administered dose
  Tissue level at Cmax, percent of administered dose, Liver: 8.60 ± 0.48% of administered dose
  Tissue level at Cmax, percent of administered dose, Lung: 0.95 ± 0.12% of administered dose
  Tissue level at Cmax, percent of administered dose, Spleen: 0.08 ± 0.01% of administered dose
[7]; guinea pig, IV 100 mg/kg, 0.08 hr (brain Cmax)
  brain/ plasma: 0.12 ± 0.006
[7]; guinea pig, IV 100 mg/kg, 0.25 hr
  brain/ plasma: 0.10 ± 0.008
[7]; guinea pig, IV 100 mg/kg, 0.5 hr
  brain/ plasma: 0.12 ± 0.007
[7]; guinea pig, IV 100 mg/kg, 1 hr
  brain/ plasma: 0.05 ± 0.001
[7]; guinea pig, IV 100 mg/kg, 2 hr
  brain/ plasma: 0.05 ± 0.005
[7]; guinea pig, IV 100 mg/kg, 4 hr
  brain/ plasma: 0.08 ± 0.005
[7]; guinea pig, IV 100 mg/kg, 8 hr
  brain/ plasma: 0.08 ± 0.010
[7]; guinea pig, IV 100 mg/kg, 24 hr
  brain/ plasma: 0.06 ± 0.008
[7]; guinea pig, IV 100 mg/kg
  Tissue level at Cmax, percent of administered dose, Brain: 0.11 ± 0.01% of administered dose
  Tissue level at Cmax, percent of administered dose, Heart: 0.05 ± 0.01% of administered dose
  Tissue level at Cmax, percent of administered dose, Kidney: 3.81 ± 0.42% of administered dose
  Tissue level at Cmax, percent of administered dose, Liver: 8.32 ± 0.42% of administered dose
  Tissue level at Cmax, percent of administered dose, Lung: 0.77 ± 0.04% of administered dose
  Tissue level at Cmax, percent of administered dose, Spleen: 0.07 ± 0.01% of administered dose
[7]; guinea pig, IV 200 mg/kg, 0.08 hr (brain Cmax)
  brain/ plasma: 0.18 ± 0.013
[7]; guinea pig, IV 200 mg/kg, 0.25 hr
  brain/ plasma: 0.19 ± 0.012
[7]; guinea pig, IV 200 mg/kg, 0.5 hr
  brain/ plasma: 0.27 ± 0.080
[7]; guinea pig, IV 200 mg/kg, 1 hr
  brain/ plasma: 0.15 ± 0.028
[7]; guinea pig, IV 200 mg/kg, 2 hr
  brain/ plasma: 0.08 ± 0.009
[7]; guinea pig, IV 200 mg/kg, 4 hr
  brain/ plasma: 0.08 ± 0.005
[7]; guinea pig, IV 200 mg/kg, 8 hr
  brain/ plasma: 0.12 ± 0.010
[7]; guinea pig, IV 200 mg/kg, 24 hr
  brain/ plasma: 0.22 ± 0.071
[7]; guinea pig, IV 200 mg/kg
  Tissue level at Cmax, percent of administered dose, Heart: 0.08 ± 0.01% of administered dose
  Tissue level at Cmax, percent of administered dose, Kidney: 3.65 ± 0.48% of administered dose
  Tissue level at Cmax, percent of administered dose, Liver: 5.25 ± 0.32% of administered dose
  Tissue level at Cmax, percent of administered dose, Lung: 0.85 ± 0.04% of administered dose
  Tissue level at Cmax, percent of administered dose, Spleen: 0.12 ± 0.01% of administered dose
[7]; guinea pig, IV 200 mg/kg, 200 mg/kg
  Tissue level at Cmax, percent of administered dose, Brain: 0.18% of administered dose and 0.18 ± 0.01% of administered dose
[7]; [14]
  time of tissue Cmax, all tissues except the liver: 5 to 15 min
  time of tissue Cmax, liver: 30 min
[7]; mean over the dose range, IV
  heart, percent of the administered dose at Cmax: 0.06%
[7]; tissues other than liver and kidney, IV
  all other tissues, percent of the administered dose at Cmax: less than 1%
